Test results taken from patent US20130178453A1, “Cannabinoid Agonists” (priority 2010, published 2013).
Read-outs that look alike come from different tables or passages of the source.

Tests used:
hCB1 [1] = molecular target: T1, hCB1 (Homo sapiens, UniProt P21554); assay: hCB1 cAMP agonist assay (HEK-293 cells); assay type: cell-based
hCB1 [2] = molecular target: T1, hCB1; assay: hCB1 radioligand binding assay ([3H]-CP 55,940 displacement); conditions: hCB1 IC50 (CP displ, nM, HEK), HEK membranes
Source text: (§1) cDNA expression clones for human CB 1 (hCB1, Genbank Accession No. AY225225) and human CB2 (hCB2, Genbank Accession No. AY242132) expressed in vector pcDNA3.1+ were purchased from UMR cDNA Resource Center, Rolla, Mo. (Clone ID CNR01L000 for hCB1; CNR0200000 for hCB2).
Stable, HEK-293-derived cell lines that recombinantly express hCB1 or hCB2 were established. In brief, the clone hCB1 (CNR1L) or hCB2 (CNR2) was transfected into human embryonic kidney cells (HEK-293) using Lipofectamine 2000 (Gibco, Cat#11668-019) according to the manufacturer's protocol. Transfected clones were isolated by single colony purification and clones were screened for receptor expression using a whole cell, ^3H—CP 55,940 radioligand binding assay. HEK-293 stable cells were maintained in Dulbecco's modified Eagles medium (DMEM) containing 10% fetal bovine serum, 2 mM L-glutamine and 0.5 mg/mL G-418.
(§2) Membranes were isolated from transfected cells as follows. Monolayers of cultured cells were washed twice with phosphate-buffered saline (PBS). Cells were scraped into 20 mM HEPES, pH 7.4, 10 mM EDTA containing complete cocktail protease inhibitors (Roche, Catalog #11 697 498 001), and were homogenized by an electric-powered mechanical probe homogenizer (Omni GLH; probe G7-195S) for 40 seconds at 7000 rpm. Homogenates were centrifuged 10 minutes at 1000×g at 4° C. The supernatant was collected and was centrifuged for 1 hour at 40,000×g. The supernatant was then decanted and the resulting pellet was re-suspended in 20 mM HEPES, pH 7.4, 5 mM MgCl2, 1 mM EDTA, 10% sucrose with complete cocktail protease inhibitors. Protein concentration of membrane suspensions were measured by Bradford Protein Assay using bovine serum albumin as the standard (BioRad catalog #500-0006). Protein concentrations of membrane suspensions were adjusted with the final buffer in the range of 5 to 10 mg/mL and were stored at −80° C. until further use.
Radioligand binding assays were performed by incubating membranes (2-10 μg protein) prepared from HEK-293 cells expressing recombinant human cannabinoid receptors, CB 1 or CB2, at room temperature with 0.5 nM cannabinoid receptor agonist, [^3H]-CP 55,940 (Perkin Elmer, catalog #NET 1051) in 0.2 mL of binding buffer (50 mM Tris-HCl, pH 7.5, 5 mM MgCl2, 2.5 mM EDTA) and 0.1% fatty acid free bovine serum albumin (Sigma Cat. #A0821) for 90 minutes. A rapid filtration technique using Millipore FB filter plates (Catalog #MADVNOB) and filtration apparatus (Millipore system Catalog MAVM0960R) with vacuum aspiration was used to harvest and rinse labeled membranes (8 times with 0.2 mL of chilled binding buffer). The radioactivity bound to the filters was counted with 0.05 mL of liquid scintillant (UltraGold MV, PerkinElmer catalog #6013159) in a scintillation counter (Perkin Elmer Microbeta instrument). Nonspecific binding was determined in the presence of unlabeled 1 μM CP 55,940 (Sigma Aldrich, catalog #C1112). Binding data were analyzed using GraphPad Prism (GraphPad Software, Inc. San Diego, Calif.).

hCB2 [3] = molecular target: T2, hCB2 (Homo sapiens, UniProt P34972); assay: hCB2 GTPγS agonist assay (HEK-293 membranes); assay type: biochemical
T2 sequence (P34972 whole entry): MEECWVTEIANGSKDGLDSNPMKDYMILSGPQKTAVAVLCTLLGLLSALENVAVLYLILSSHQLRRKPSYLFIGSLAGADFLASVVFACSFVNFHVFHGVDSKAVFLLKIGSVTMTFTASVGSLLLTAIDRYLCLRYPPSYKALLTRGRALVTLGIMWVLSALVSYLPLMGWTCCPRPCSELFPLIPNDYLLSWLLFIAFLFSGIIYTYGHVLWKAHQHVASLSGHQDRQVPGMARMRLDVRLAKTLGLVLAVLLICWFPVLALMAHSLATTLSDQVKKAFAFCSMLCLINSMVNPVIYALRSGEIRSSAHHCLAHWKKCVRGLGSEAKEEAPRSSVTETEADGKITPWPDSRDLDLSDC
Method: as §1
as §2, with “Cells were scraped into 20 mM HEPES, pH 7.4, 10 mM EDTA containing complete cocktail protease inhibitors (Roche, Catalog #11 697 498 001), and were homogenized by an electric-powered mechanical probe homogenizer (Omni GLH; probe G7-195S) for 40 seconds at 7000 rpm.” left out
^35S GTPγS binding assays were performed by incubating recombinant cell membranes prepared above (5 μg) in the presence of scintillation proximity assay beads (SPA beads, Catalog #RPNQ0252 GE Healthcare, Buckinghamshire, England) in GTPγS binding buffer [50 mM HEPES (pH 7.4), 100 mM NaCl, 5 mM MgCl2, 0.001% saponin (Sigma catalog #S4521)] supplemented with 20 uM GDP (Sigma catalog #G7127) in the presence or absence of test compound. The reaction was carried out in 96-well microplates with 0.1 nM [^35S]GTPγS (specific activity=1250 Ci/mmol; Perkin Elmer catalog #NEG030X250UC) in a final volume of 100 μL. After a 90 min room temperature incubation, the reaction was analyzed using a scintillation counter (Perkin Elmer Microbeta instrument). Binding data were analyzed using GraphPad Prism.

hCB2 [4] = molecular target: T2, hCB2; assay: hCB2 cAMP agonist assay (HEK-293 cells); assay type: cell-based
Method: as §1
cAMP assays were performed in HEK-293 cells stably expressing human CB 1 or CB2 receptors. […] Cells suspensions were centrifuged and the cells were washed once with PBS, were centrifuged again, and the cells were resuspended in HBSS (Hank's Balanced Salt Solution, Cellgro, Cat #21-022-CV) solution containing 10 mM HEPES and 0.1% fatty acid free BSA (Sigma, Cat #A0281). Cell suspensions were prepared at 1,500,000 cells per mL. Stock solutions of test substances (10 mM) in DMSO were diluted to 1 mM using 30% DMSO as diluent. Test substances of solutions (1 mM) were further diluted down to 3× of final assay concentrations in the above HBSS buffer containing 0.1% BSA in the presence of 90 uM forskolin (Sigma Cat#F6886). To perform the assay, 20 μL of cell suspension (1,500,000 cells/mL) were added to each well in 96 well plate and treated with 10 μL test substance solution diluted as described above. Cells and compounds were incubated at 37° C. for 30 minutes. Cells were lysed and cAMP concentration was measured using DiscoveRx-XS+ cAMP assay kit (DiscoveRx Corporation Ltd., Fremont, Calif., USA, Cat #90-0075-03), following the manufacturer's protocol. GraphPad Prism software was used to calculate EC50 values using sigmoidal dose response curve fitting. The maximal amount of cAMP produced by forskolin was defined as 100%.

hCB2 [5] = molecular target: T2, hCB2; assay: hCB2 radioligand binding assay ([3H]-CP 55,940 displacement); conditions: hCB2 IC50 (CP displ, nM, HEK), HEK membranes
Method: as §1
as §2, with “Cells were scraped into 20 mM HEPES, pH 7.4, 10 mM EDTA containing complete cocktail protease inhibitors (Roche, Catalog #11 697 498 001), and were homogenized by an electric-powered mechanical probe homogenizer (Omni GLH; probe G7-195S) for 40 seconds at 7000 rpm.” left out
A rapid filtration technique using Millipore FB filter plates (Catalog #MADVNOB) and filtration apparatus (Millipore system Catalog MAVM0960R) with vacuum aspiration was used to harvest and rinse labeled membranes (8 times with 0.2 mL of chilled binding buffer). […] Binding data were analyzed using GraphPad Prism (GraphPad Software, Inc. San Diego, Calif.).

[6] = GTPγS agonist, HEK membranes, read-out: hCB2 EC50 (GTPyS ag, nM, HEK)
[7] = cAMP agonist, HEK, 96-well, read-out: hCB2 EC50 (cAMP ag, nM, HEK (96-well))

T1 sequence (P21554 whole entry): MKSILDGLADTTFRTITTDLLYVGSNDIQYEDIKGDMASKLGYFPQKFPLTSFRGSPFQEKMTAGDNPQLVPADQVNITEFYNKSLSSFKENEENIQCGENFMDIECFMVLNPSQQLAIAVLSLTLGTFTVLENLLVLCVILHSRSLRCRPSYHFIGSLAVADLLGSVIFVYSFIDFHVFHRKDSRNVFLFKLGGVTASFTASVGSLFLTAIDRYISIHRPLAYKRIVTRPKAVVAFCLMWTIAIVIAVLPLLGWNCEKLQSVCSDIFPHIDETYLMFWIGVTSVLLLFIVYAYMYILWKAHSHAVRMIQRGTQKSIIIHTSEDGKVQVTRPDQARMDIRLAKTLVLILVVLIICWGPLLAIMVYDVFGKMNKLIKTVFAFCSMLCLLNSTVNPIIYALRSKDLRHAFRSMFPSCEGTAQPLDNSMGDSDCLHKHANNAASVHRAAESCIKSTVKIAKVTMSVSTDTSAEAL

Row | SMILES | hCB1 EC50 (cAMP ag, nM, HEK (96-well)) (hCB1 [1]; cAMP agonist, HEK, 96-well) | IC50 (hCB1 [2]) | EC50 (hCB2 [3]) | EC50 (hCB2 [4]) | IC50 (hCB2 [5]) | EC50 (hCB1 [1]) | EC50 (hCB1 [1]; cAMP agonist, HEK, 96-well, read-out: hCB1 EC50 (cAMP ag, nM, HEK (96-well))) | EC50 (hCB2 [3]; [6]) | EC50 (hCB2 [4]; [7])
1 | CCCn1cc(C(=O)c2cc3ccsc3n2CC)c2ccncc21 [Compound I-23] | NS (“Not Significant,” which means less than 30% agonist activity when compared to the positive control) | 1000 to 10000 nM | 100 to 1000 nM | < 100 nM | < 100 nM |  |  |  | 
2 | CCCn1cc(C(=O)c2cc3ccsc3n2C)c2ccccc21 [Compound I-32] |  | 100 to 1000 nM | < 100 nM | < 100 nM | < 100 nM | 100 to 1000 nM |  |  | 
3 | CCCCn1c(C)c(C(=O)c2cc3ccsc3n2CCC)c2ccccc21 [Compound I-58] |  | 100 to 1000 nM | < 100 nM | < 100 nM | < 100 nM | < 100 nM |  |  | 
4 | CCn1c(C(=O)c2c(C)n(CCN3CCOC3=O)c3ccccc23)cc2ccsc21 [Compound I-25] |  | > 10000 nM |  |  | < 100 nM |  | 1000 to 10000 nM | < 100 nM | < 100 nM
5 | CCn1c(C(=O)c2c(C)n(CCCNS(C)(=O)=O)c3ccccc23)cc2ccsc21 [Compound I-19] | NS (“Not Significant,” which means less than 30% agonist activity when compared to the positive control) | 1000 to 10000 nM |  |  | < 100 nM |  |  | < 100 nM | < 100 nM
6 | CCCn1c(C)c(C(=O)c2cc3cc(Cl)sc3n2CCC)c2ccccc21 [Compound I-49] | NS (“Not Significant,” which means less than 30% agonist activity when compared to the positive control) | 1000 to 10000 nM | < 100 nM | < 100 nM | < 100 nM |  |  |  | 
7 | CCCn1c(C)c(C(=O)c2cc3scnc3n2CC)c2ccccc21 [Compound I-31] | NS (“Not Significant,” which means less than 30% agonist activity when compared to the positive control) | 1000 to 10000 nM | 100 to 1000 nM | < 100 nM | 100 to 1000 nM |  |  |  | 
8 | C=CCn1cc(C(=O)c2cc3ccsc3n2CC)c2cnccc21 [Compound I-21] |  | > 10000 nM | 100 to 1000 nM | 1000 to 10000 nM | 100 to 1000 nM | 100 to 1000 nM |  |  | 
9 | CCCn1c(C)c(C(=O)c2cc3ccsc3n2CC2CCOCC2)c2ccccc21 [Compound I-72] | NS (“Not Significant,” which means less than 30% agonist activity when compared to the positive control) | 100 to 1000 nM |  |  | 100 to 1000 nM |  |  | 100 to 1000 nM | < 100 nM
